{
  "source": "patent US20090105490A1",
  "about": "“Polymorphic forms of ramelteon and processes for preparation thereof” (priority 2007, published 2009)",
  "origin": "cited, not measured here",
  "key": {"[1]": {"target": "melatonin MT1 receptor (Homo sapiens, UniProt P48039)", "sequence (P48039 whole entry)": "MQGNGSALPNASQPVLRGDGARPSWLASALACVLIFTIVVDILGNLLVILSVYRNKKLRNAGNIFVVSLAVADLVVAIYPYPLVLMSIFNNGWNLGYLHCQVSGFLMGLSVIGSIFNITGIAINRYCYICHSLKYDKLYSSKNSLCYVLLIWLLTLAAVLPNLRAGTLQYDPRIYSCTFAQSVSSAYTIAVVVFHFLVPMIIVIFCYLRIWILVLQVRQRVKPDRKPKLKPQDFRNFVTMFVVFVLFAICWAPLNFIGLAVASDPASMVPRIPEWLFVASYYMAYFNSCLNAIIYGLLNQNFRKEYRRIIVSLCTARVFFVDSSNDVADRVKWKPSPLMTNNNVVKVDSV", "conditions": "melatonin receptor agonist"}, "[2]": {"target": "T1, melatonin MT2 receptor (Homo sapiens, UniProt P49286)", "T1 sequence (P49286 1-362)": "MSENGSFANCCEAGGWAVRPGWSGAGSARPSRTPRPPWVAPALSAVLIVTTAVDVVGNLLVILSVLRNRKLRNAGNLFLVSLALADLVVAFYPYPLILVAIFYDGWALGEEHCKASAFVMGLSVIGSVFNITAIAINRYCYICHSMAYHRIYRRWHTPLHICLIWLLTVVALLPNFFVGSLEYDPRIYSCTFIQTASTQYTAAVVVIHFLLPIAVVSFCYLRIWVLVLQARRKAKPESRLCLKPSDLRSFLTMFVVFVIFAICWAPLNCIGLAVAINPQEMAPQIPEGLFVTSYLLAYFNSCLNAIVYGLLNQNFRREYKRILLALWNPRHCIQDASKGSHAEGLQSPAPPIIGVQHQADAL", "conditions": "melatonin receptor agonist"}, "[3]": {"system": "MT3 receptor", "conditions": "MT1 and MT2 versus MT3"}},
  "note": "Where two headings read alike, the source gives them in different places.",
  "data": [
    {"smiles": "CCC(=O)NCC[C@@H]1CCc2ccc3c(c21)CCO3", "note": "[Ramelteon, (S)-N-[2-(1,6,7,8-tetrahydro-2H-indeno-[5,4-b]furan-8-yl)ethyl]propionamide]", "values": [
      {"measurement": "affinity for melatonin MT1 receptor", "setting": "[1]", "result": "high affinity"},
      {"measurement": "affinity for melatonin MT2 receptor", "setting": "[2]", "result": "high affinity"},
      {"measurement": "selectivity over the MT3 receptor", "setting": "[3]", "result": "selectivity over the MT3 receptor"},
      {"measurement": "solubility", "setting": "1-octanol", "result": "freely soluble"},
      {"measurement": "solubility", "setting": "DMSO", "result": "freely soluble"},
      {"measurement": "solubility", "setting": "aqueous buffers", "result": "slightly soluble"},
      {"measurement": "solubility", "setting": "ethanol", "result": "freely soluble"},
      {"measurement": "solubility", "setting": "methanol", "result": "freely soluble"},
      {"measurement": "solubility", "setting": "water", "result": "slightly soluble"}
    ]}
  ]
}
